This is an account of results in EP1948196B1, “USE OF TETRAORGANOSILICON COMPOUNDS” (Salama, Zoser B., priority 2005, dated 2007).

One experiment concerns Seminome. As to the kind of experiment: Effect on seminomas.
Another experiment concerns Hepatitis C-Viren. Nature of the experiment: Antiviral effect. The conditions noted are these: in particular as vesicles holding antisense constructs.
In a further experiment the test system is Medulloblastom-Zellen. As to the kind of experiment: Inhibition of cell multiplication. The experiment is classed as cell-based.
The subject of experiment [1] is Osteosarkom bzw. Adenokarzinome. As to the kind of experiment: Effect in mice on osteosarcoma or adenocarcinoma. More on the design: species or system Mäuse. To be noted: in vivo.
Experiment [2] relates to Zellen des Basatzellkarzinoms. Nature of the experiment: Inhibition of cell multiplication. The experiment is classed as cell-based.
In a further experiment the test system is Adenokarzinome. Nature of the experiment: Effect on adenocarcinomas.
The next experiment has as its system Sendai-Viren. Nature of the experiment: Antiviral effect. To be noted: in particular as vesicles holding antisense constructs.
For another experiment, the system named is Basalzellkarzinome. Nature of the experiment: Effect on basal cell carcinomas.
A further experiment concerns Angiosarkome. Nature of the experiment: Effect on angiosarcomas.
Another experiment relates to Hepatitis B-Viren. Nature of the experiment: Antiviral effect. To be noted: in particular as vesicles holding antisense constructs.
The next experiment relates to Medulloblastome. As to the kind of experiment: Effect on medulloblastomas.
A further experiment concerns Entero-Viren. As to the kind of experiment: Antiviral effect. The conditions noted are these: in particular as vesicles holding antisense constructs.
The test system of a further experiment is Adenokarzinom-Gewebe. Nature of the experiment: Effect against adenocarcinoma tissue, inhibition of metastasis.
The subject of a further experiment is Hepatitis-Viren. As to the kind of experiment: Antiviral effect. To be noted: in particular as vesicles holding antisense constructs.
In the next experiment the test system is Lymphome. Nature of the experiment: Effect on lymphomas.

Numbered stars: 1 amine (or outer) side, 2 acyl side, 3 side chain; on linkers, the order of the positions; unused ones are H or OH. Bridge positions count the residues as written; N and C are the ends. Peptide text beside a SMILES is read from it. I, II: the chains in the order shown. X2 = c1ccc([Si](O[*:1])(O[*:2])c2ccccc2)cc1; X1 = C[Si](C)(O[*:1])O[*:2]

In the case of `CC/C=C\C/C=C\C/C=C\CCCCCCCC(=O)O[Si](CC)(CC)OC(=O)CCCCCCC/C=C\C/C=C\C/C=C\CC` [Di(linolenoylooxy)diethylsilan], the “Wirkung auf Seminome” value with Seminome is listed as “zeigen eine Wirkung”. For the same compound, in the experiment on Hepatitis C-Viren, the “Wirkung gegen Hepatitis C-Viren” value was “zeigen eine Wirkung”.
With `C[C@H](N)C(=O)N[C@@H](C)C(=O)N[C@@H](C)C(=O)N[C@@H](C)C(=O)N[C@@H](C)C(=O)N[C@@H](C)C(=O)N[C@@H](C)C(=O)N[C@@H](C)C(=O)O[Si](C)(C)OC(=O)[C@H](C)NC(=O)[C@H](C)NC(=O)[C@H](C)NC(=O)[C@H](C)NC(=O)[C@H](C)NC(=O)[C@H](C)NC(=O)[C@H](C)NC(=O)[C@H](C)N` [Dimethyl bis(octaalanyl)silylester] (I: H-AAAAAAAA / II: H-AAAAAAAA; linker I:C-II:C via X1), the “Vermehrung von Medulloblastom-Zellen” value in the experiment with Medulloblastom-Zellen was “inhibieren”. Further, the “Wirkung auf Mäuse, Osteosarkom bzw. Adenokarzinome” value (from here on “Wirkung auf Mäuse”) in experiment [1] was “zeigen eine Wirkung”. Further, the “Vermehrung von Zellen des Basatzellkarzinoms” value in experiment [2] is listed as “inhibieren”.
Take `CC(C)[C@H](N)C(=O)N[C@H](C(=O)N[C@H](C(=O)N[C@H](C(=O)N[C@H](C(=O)N[C@H](C(=O)N[C@H](C(=O)N[C@H](C(=O)O[Si](C)(C)OC(=O)[C@@H](NC(=O)[C@@H](NC(=O)[C@@H](NC(=O)[C@@H](NC(=O)[C@@H](NC(=O)[C@@H](NC(=O)[C@@H](NC(=O)[C@@H](N)C(C)C)C(C)C)C(C)C)C(C)C)C(C)C)C(C)C)C(C)C)C(C)C)C(C)C)C(C)C)C(C)C)C(C)C)C(C)C)C(C)C)C(C)C` [Dimethyl bis(octavalyl)silylester] (I: H-VVVVVVVV / II: H-VVVVVVVV; linker I:C-II:C via X1): the “Wirkung auf Adenokarzinome” value in the experiment on Adenokarzinome is given as “zeigen eine Wirkung”.
Turning to `CCCCCCCCCCCCCCCCCC(=O)O[Si](CCC)(CCC)OC(=O)CCCCCCCCCCCCCCCCC` [Di(octadecanoyloxy)dipropylsilan], the “Wirkung gegen Sendai-Viren” value with Sendai-Viren was “zeigen eine Wirkung”. Further, the “Wirkung auf Basalzellkarzinome” value in the experiment on Basalzellkarzinome is listed as “zeigen eine Wirkung”. The “Wirkung gegen Angiosarkome” value in the experiment with Angiosarkome is given as “zeigen eine Wirkung”. Also, the “Wirkung gegen Hepatitis B-Viren” value in the experiment with Hepatitis B-Viren was “zeigen eine Wirkung”.
For the compound `CC(C)[C@H](N)C(=O)N[C@H](C(=O)N[C@H](C(=O)N[C@H](C(=O)O[Si](C)(C)OC(=O)[C@@H](NC(=O)[C@@H](NC(=O)[C@@H](NC(=O)[C@@H](N)C(C)C)C(C)C)C(C)C)C(C)C)C(C)C)C(C)C)C(C)C` [Dimethyl bis(tetravalyl)silylester], in the experiment on Adenokarzinome, the “Wirkung auf Adenokarzinome” value is reported as “zeigen eine Wirkung”.
Take `C[Si](C)(OC(=O)CNC(=O)CNC(=O)CNC(=O)CNC(=O)CNC(=O)CNC(=O)CNC(=O)CN)OC(=O)CNC(=O)CNC(=O)CNC(=O)CNC(=O)CNC(=O)CNC(=O)CNC(=O)CN` [Dimethyl bis(octaglycyl)silylester] (I: H-GGGGGGGG / II: H-GGGGGGGG; linker I:C-II:C via X1): in the experiment on Medulloblastome, the “Wirkung gegen Medulloblastome” value was “zeigen eine Wirkung”. The “Wirkung gegen Entero-Viren” value with Entero-Viren is recorded as “zeigen eine Wirkung”.
Take `CCCCCCCCCCCCCCCC(=O)O[Si](OC(=O)CCCCCCCCCCCCCCC)(C(C)C)C(C)C` [Di(hexadecanoyloxy)diisopropylsilan]: the “Wirkung gegen Adenokarzinom-Gewebe, insbesondere inhibierende Wirkung auf die Metastasierung” value in the experiment on Adenokarzinom-Gewebe is “haben eine Wirkung”.
On to `CCCCCCCCCCCCC(=O)O[Si](OC(=O)CCCCCCCCCCCC)(C(C)C)C(C)C` [Di(tridecanoyloxy)diisopropylsilan], for which, in the experiment on Adenokarzinom-Gewebe, the “Wirkung gegen Adenokarzinom-Gewebe, insbesondere inhibierende Wirkung auf die Metastasierung” value is “haben eine Wirkung”.
On to `CC(C)[C@H](N)C(=O)N[C@H](C(=O)N[C@H](C(=O)N[C@H](C(=O)N[C@H](C(=O)O[Si](C)(C)OC(=O)[C@@H](NC(=O)[C@@H](NC(=O)[C@@H](NC(=O)[C@@H](NC(=O)[C@@H](N)C(C)C)C(C)C)C(C)C)C(C)C)C(C)C)C(C)C)C(C)C)C(C)C)C(C)C` [Dimethyl bis(pentavalyl)silylester], for which the “Wirkung auf Adenokarzinome” value in the experiment with Adenokarzinome was “zeigen eine Wirkung”.
For `CC(C)[C@H](N)C(=O)N[C@H](C(=O)N[C@H](C(=O)O[Si](C)(C)OC(=O)[C@@H](NC(=O)[C@@H](NC(=O)[C@@H](N)C(C)C)C(C)C)C(C)C)C(C)C)C(C)C` [Dimethyl bis(trivalyl)silylester], the “Wirkung auf Adenokarzinome” value in the experiment on Adenokarzinome is on record as “zeigen eine Wirkung”.
Consider `C[C@H](N)C(=O)N[C@@H](C)C(=O)N[C@@H](C)C(=O)N[C@@H](C)C(=O)O[Si](C)(C)OC(=O)[C@H](C)NC(=O)[C@H](C)NC(=O)[C@H](C)NC(=O)[C@H](C)N` [Dimethyl bis(tetraalanyl)silylester], for which the “Vermehrung von Medulloblastom-Zellen” value with Medulloblastom-Zellen is reported as “inhibieren”. Further, the “Wirkung auf Mäuse” value in experiment [1] was “zeigen eine Wirkung”. Besides, the “Vermehrung von Zellen des Basatzellkarzinoms” value in [2] is “inhibieren”.
Turning to `C[C@H](N)C(=O)N[C@@H](C)C(=O)N[C@@H](C)C(=O)O[Si](C)(C)OC(=O)[C@H](C)NC(=O)[C@H](C)NC(=O)[C@H](C)N` [Dimethyl bis(trialanyl)sillylester], the “Vermehrung von Medulloblastom-Zellen” value in the experiment with Medulloblastom-Zellen was “inhibieren”. In experiment [1], the “Wirkung auf Mäuse” value was “zeigen eine Wirkung”. Moreover, the “Vermehrung von Zellen des Basatzellkarzinoms” value in [2] was “inhibieren”.
With `CCCCCCCC(=O)O[Si](OC(=O)CCCCCCC)(C(C)C)C(C)C` [Di(octanoyloxy)diisopropylsilan], the “Wirkung gegen Sendai-Viren” value with Sendai-Viren is given as “zeigen eine Wirkung”. For the same compound, the “Wirkung auf Basalzellkarzinome” value in the experiment on Basalzellkarzinome is “zeigen eine Wirkung”. The “Wirkung gegen Angiosarkome” value in the experiment with Angiosarkome is “zeigen eine Wirkung”. The “Wirkung gegen Hepatitis B-Viren” value in the experiment with Hepatitis B-Viren was “zeigen eine Wirkung”.
As for `CCCCCCCC/C=C\CCCCCCCC(=O)O[Si](CC)(CC)OC(=O)CCCCCCC/C=C\CCCCCCCC` [Di (oleylooxy)diethylsilan], in the experiment with Seminome, the “Wirkung auf Seminome” value is listed as “zeigen eine Wirkung”. Further, the “Wirkung gegen Hepatitis C-Viren” value with Hepatitis C-Viren is listed as “zeigen eine Wirkung”.
With `CC/C=C\C/C=C\C/C=C\CCCCCCCC(=O)O[Si](CCC)(CCC)OC(=O)CCCCCCC/C=C\C/C=C\C/C=C\CC` [Di(linolenoylooxy)dipropylsilan], in the experiment with Seminome, the “Wirkung auf Seminome” value was “zeigen eine Wirkung”. In addition, the “Wirkung gegen Hepatitis C-Viren” value in the experiment on Hepatitis C-Viren is listed as “zeigen eine Wirkung”.
As to `C[C@H](N)C(=O)N[C@@H](C)C(=O)N[C@@H](C)C(=O)N[C@@H](C)C(=O)N[C@@H](C)C(=O)O[Si](C)(C)OC(=O)[C@H](C)NC(=O)[C@H](C)NC(=O)[C@H](C)NC(=O)[C@H](C)NC(=O)[C@H](C)N` [Dimethyl bis(pentaalanyl)silylester], the “Vermehrung von Medulloblastom-Zellen” value with Medulloblastom-Zellen is on record as “inhibieren”. Further, the “Wirkung auf Mäuse” value in experiment [1] is reported as “zeigen eine Wirkung”. For the same compound, the “Vermehrung von Zellen des Basatzellkarzinoms” value in [2] is “inhibieren”.
As for `C[Si](C)(OC(=O)CNC(=O)CNC(=O)CNC(=O)CN)OC(=O)CNC(=O)CNC(=O)CNC(=O)CN` [Dimethyl bis(tetraglycyl)silylester], the “Wirkung gegen Medulloblastome” value with Medulloblastome was “zeigen eine Wirkung”. In addition, the “Wirkung gegen Entero-Viren” value with Entero-Viren was “zeigen eine Wirkung”.
As for `C[C@H](N)C(=O)N[C@@H](C)C(=O)N[C@@H](C)C(=O)N[C@@H](C)C(=O)N[C@@H](C)C(=O)O[Si](OC(=O)[C@H](C)NC(=O)[C@H](C)NC(=O)[C@H](C)NC(=O)[C@H](C)NC(=O)[C@H](C)N)(c1ccccc1)c1ccccc1` [Diphenyl bis(pentaalanyl)silylester], in the experiment with Hepatitis-Viren, the “Wirkung gegen Hepatitis-Viren” value was “zeigen eine Wirkung”. In addition, the “Wirkung auf Lymphome” value in the experiment with Lymphome is reported as “zeigen eine Wirkung”.
On to `CCCCC/C=C\C/C=C\CCCCCCCC(=O)O[Si](CCC)(CCC)OC(=O)CCCCCCC/C=C\C/C=C\CCCCC` [Di(linoylooxy)dipropylsilan], for which, in the experiment with Seminome, the “Wirkung auf Seminome” value is reported as “zeigen eine Wirkung”. The “Wirkung gegen Hepatitis C-Viren” value in the experiment with Hepatitis C-Viren is on record as “zeigen eine Wirkung”.
Turning to `CCCCCCCCCCCCCCCC(=O)O[Si](CCC)(CCC)OC(=O)CCCCCCCCCCCCCCC` [Di(hexadecanoyloxy)dipropylsilan], the “Wirkung gegen Sendai-Viren” value in the experiment on Sendai-Viren was “zeigen eine Wirkung”. The “Wirkung auf Basalzellkarzinome” value in the experiment on Basalzellkarzinome was “zeigen eine Wirkung”. Besides, the “Wirkung gegen Angiosarkome” value in the experiment with Angiosarkome is “zeigen eine Wirkung”. Also, in the experiment with Hepatitis B-Viren, the “Wirkung gegen Hepatitis B-Viren” value is “zeigen eine Wirkung”.
In the case of `CCCCCCCCCCCCCCCCC(=O)O[Si](CCC)(CCC)OC(=O)CCCCCCCCCCCCCCCC` [Di(heptadecanoyloxy)dipropylsilan], the “Wirkung gegen Sendai-Viren” value with Sendai-Viren is “zeigen eine Wirkung”. Besides, the “Wirkung auf Basalzellkarzinome” value in the experiment with Basalzellkarzinome is reported as “zeigen eine Wirkung”. For the same compound, the “Wirkung gegen Angiosarkome” value with Angiosarkome was “zeigen eine Wirkung”. For the same compound, the “Wirkung gegen Hepatitis B-Viren” value with Hepatitis B-Viren is “zeigen eine Wirkung”.
As to `C[C@H](N)C(=O)N[C@@H](C)C(=O)N[C@@H](C)C(=O)N[C@@H](C)C(=O)N[C@@H](C)C(=O)N[C@@H](C)C(=O)N[C@@H](C)C(=O)N[C@@H](C)C(=O)O[Si](OC(=O)[C@H](C)NC(=O)[C@H](C)NC(=O)[C@H](C)NC(=O)[C@H](C)NC(=O)[C@H](C)NC(=O)[C@H](C)NC(=O)[C@H](C)NC(=O)[C@H](C)N)(c1ccccc1)c1ccccc1` [Diphenyl bis(octaalanyl)silylester] (I: H-AAAAAAAA / II: H-AAAAAAAA; linker I:C-II:C via X2), the “Wirkung gegen Hepatitis-Viren” value in the experiment with Hepatitis-Viren is listed as “zeigen eine Wirkung”. The “Wirkung auf Lymphome” value in the experiment with Lymphome is listed as “zeigen eine Wirkung”.
With `CCCCCCCCCCCCCC(=O)O[Si](OC(=O)CCCCCCCCCCCCC)(C(C)C)C(C)C` [Di(tetradecanoyloxy)diisopropylsilan], the “Wirkung gegen Adenokarzinom-Gewebe, insbesondere inhibierende Wirkung auf die Metastasierung” value with Adenokarzinom-Gewebe is “haben eine Wirkung”.
For the compound `CCCCCCCCCCCC(=O)O[Si](OC(=O)CCCCCCCCCCC)(C(C)C)C(C)C` [Di(dodecanoyloxy)diisopropylsilan], in the experiment with Adenokarzinom-Gewebe, the “Wirkung gegen Adenokarzinom-Gewebe, insbesondere inhibierende Wirkung auf die Metastasierung” value was “haben eine Wirkung”.
Take `CCCCCCCCCCCCCCC(=O)O[Si](OC(=O)CCCCCCCCCCCCCC)(C(C)C)C(C)C` [Di(pentadecanoyloxydiisopropylsilan]: in the experiment with Adenokarzinom-Gewebe, the “Wirkung gegen Adenokarzinom-Gewebe, insbesondere inhibierende Wirkung auf die Metastasierung” value is “haben eine Wirkung”.
